22 compounds from patent US8067445B2, “N,N-disubstituted aminoalkylbiphenyl antagonists of prostaglandin D2 receptors” (Panmira Pharmaceuticals, LLC, priority 2008, dated 2011) can be followed below.

For the first assay, the target named is T1, human DP2 receptor (Homo sapiens, UniProt Q9Y5Y4).
T1 construct: expressed in transfected cells
T1 sequence (Q9Y5Y4 1-395): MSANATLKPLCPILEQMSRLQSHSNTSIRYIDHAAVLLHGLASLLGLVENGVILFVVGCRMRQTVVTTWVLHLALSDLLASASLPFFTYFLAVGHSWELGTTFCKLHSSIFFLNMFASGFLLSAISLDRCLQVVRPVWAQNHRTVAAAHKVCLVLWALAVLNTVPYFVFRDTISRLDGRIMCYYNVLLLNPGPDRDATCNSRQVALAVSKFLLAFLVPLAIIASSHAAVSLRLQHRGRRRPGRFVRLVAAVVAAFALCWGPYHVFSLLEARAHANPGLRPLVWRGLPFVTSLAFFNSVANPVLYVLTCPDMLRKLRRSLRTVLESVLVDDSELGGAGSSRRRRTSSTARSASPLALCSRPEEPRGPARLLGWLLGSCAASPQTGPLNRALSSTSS
Kind of assay: DP2/CRTH2 radioligand binding assay ([3H]PGD2). Particulars: [3H]PGD2 binding, membranes of HEK293 cells expressing human DP2; read-out: hDP2. As to the method: The ability of a compound to bind to the human DP2 receptor is assessed via a radioligand binding assay using [^3H]PGD2. HEK293 cells stably expressing recombinant human DP2 are resuspended in 10 mM Hepes, 7.4 containing 1 mM DTT, lysed and centrifuged at 75,000×g to pellet the membranes. The membranes are resuspended in 10 mM Hepes, 7.4 containing 1 mM DTT and 10% glycerol to approximately 5 mg protein/ml. Membranes (2-10 μg protein/well) are incubated in 96-well plates with 1 nM [^3H]PGD2 and test compound in Assay Buffer (50 mM Hepes, 10 mM MnCl2, 1 mM EDTA, plus or minus 0.2% human serum albumin, pH 7.4) for 60 minutes at room temperature. The reactions are terminated by rapid filtration through Whatman GF/C glass fibre filter plates. The filter plates were pre-soaked in 0.33% polyethylenimine for 30 minutes at room temperature then washed in Wash Buffer (50 mM Hepes, 0.5 M NaCl pH 7.4) prior to harvesting. After harvesting, the filter plates are washed 3 times with 1 ml cold Wash Buffer then dried. Scintillant is then added to the plates and the radioactivity retained on the filters is determined on a Packard TopCount (Perkin Elmer). Specific binding is determined as total radioactive binding minus non-specific binding in the presence of 10 μM PGD2. IC50s were determined using GraphPad prism analysis of drug titration curves.
As to `CCN(Cc1cc(C(F)(F)F)ccc1-c1cc(CC(=O)O)cc(C(F)(F)F)c1)C(=O)NC` [Compound 1-202, [2′-(1-Ethyl-3-methyl-ureidomethyl)-5,4′-bis-trifluoromethyl-biphenyl-3-yl]-acetic acid], the IC50 is < 300 nM.
Still for that read-out and setting: to `CCN(Cc1cc(-c2ccc3ncccc3c2)ccc1-c1cc(CC(=O)O)ccc1OC)C(=O)NCc1ccccc1` [Compound 1-231, [2′-(3-Benzyl-1-ethyl-ureidomethyl)-6-methoxy-4′-quinolin-6-yl-biphenyl-3-yl]-acetic acid] belongs < 300 nM; to `CCN(Cc1cc(C(F)(F)F)ccc1-c1cc(CC(=O)O)ccc1OC)C(=O)Cc1ccccc1` [Compound 1-207, {2′-[(Ethyl-phenylacetyl-amino)-methyl]-6-methoxy-4′-trifluoromethyl-biphenyl-3-yl}-acetic acid], < 300 nM; to `CCN(Cc1cc(C(F)(F)F)ccc1-c1cc(C(C)C(=O)O)cc(C(F)(F)F)c1)C(C)=O` (stereo not shown) [Compound 1-213, 2-{2′-[(Acetyl-ethyl-amino)-methyl]-5,4′-bis-trifluoromethyl-biphenyl-3-yl}-propionic acid], < 300 nM.
The same measure, in the same setting: to `CCOc1ccc(-c2ccc(-c3cc(CC(=O)O)ccc3OC)c(CN(CC)C(=O)Cc3ccccc3)c2)cn1` [Compound 1-255, {4′-(6-Ethoxy-pyridin-3-yl)-2′-[(ethyl-phenylacetyl-amino)-methyl]-6-methoxy-biphenyl-3-yl}-acetic acid] belongs < 300 nM; to `CCN(Cc1cc(C(F)(F)F)ccc1-c1cc([C@H](C)C(=O)N2C(=O)O[C@@H](c3ccccc3)[C@H]2C)ccc1OC)C(=O)C1CC1` [Compound 2-13, Cyclopropanecarboxylic acid ethyl-{2′-methoxy-5′-[(S)-1-methyl-2-((4R,5S)-4-methyl-2-oxo-5-phenyl-oxazolidin-3-yl)-2-oxo-ethyl]-4-trifluoromethyl-biphenyl-2-ylmethyl}-amide], 1000 to 30000 nM; to `CCN(Cc1cc(C(F)(F)F)ccc1-c1cc(CC(=O)O)cc(C(F)(F)F)c1)C(=O)OCc1ccc(F)cc1` [Compound 1-191, (2′-{[Ethyl-(4-fluoro-benzyloxycarbonyl)-amino]-methyl}-5,4′-bis-trifluoromethyl-biphenyl-3-yl)-acetic acid], < 300 nM.
On the same count and under the same terms, to `CCN(Cc1cc(C(F)(F)F)ccc1-c1cc([C@@H](C)C(=O)N[C@H](C)Cc2ccccc2)cc(C(F)(F)F)c1)C(=O)NCc1ccccc1` [Compound 2-10, (R)-2-[2′-(3-Benzyl-1-ethyl-ureidomethyl)-5,4′-bis-trifluoromethyl-biphenyl-3-yl]-N—((R)-1-methyl-2-phenyl-ethyl)-propionamide] belongs > 30000 nM.
Regarding `CCN(Cc1cc(C(F)(F)F)ccc1-c1cc(CC(=O)O)ccc1OC)C(=O)C1(O)CC1` [Compound 1-209, (2′-{[Ethyl-(1-hydroxy-cyclopropanecarbonyl)-amino]-methyl}-6-methoxy-4′-trifluoromethyl-biphenyl-3-yl)-acetic acid], the IC50 was < 300 nM.
Same read-out and setting: to `CCN(Cc1cc(C(F)(F)F)ccc1-c1cc(CC(=O)O)ccc1OC)C(N)=O` [Compound 1-210, {2′-[(1-Ethyl-ureido)-methyl]-6-methoxy-4′-trifluoromethyl-biphenyl-3-yl}-acetic acid] belongs < 300 nM; to `CCN(Cc1cc(C(F)(F)F)ccc1-c1cc(CC(=O)O)ccc1OC)C(=O)NCc1cccnc1` [Compound 1-198], < 300 nM.

Another assay deals with T2, human DP1 receptor (Homo sapiens, UniProt Q13258).
T2 construct: tissue Biological Specialty Corporation; host or cells: human platelet membranes
T2 sequence (Q13258 1-359): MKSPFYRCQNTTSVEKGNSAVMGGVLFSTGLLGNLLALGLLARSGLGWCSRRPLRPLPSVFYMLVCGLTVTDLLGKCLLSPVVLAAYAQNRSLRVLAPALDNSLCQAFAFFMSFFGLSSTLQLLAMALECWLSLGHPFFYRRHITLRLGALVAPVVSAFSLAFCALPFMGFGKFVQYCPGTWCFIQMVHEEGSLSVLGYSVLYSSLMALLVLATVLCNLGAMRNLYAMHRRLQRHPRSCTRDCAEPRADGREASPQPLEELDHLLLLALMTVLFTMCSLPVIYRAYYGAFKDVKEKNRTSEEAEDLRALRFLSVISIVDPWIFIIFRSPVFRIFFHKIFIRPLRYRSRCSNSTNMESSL
The assay can be described thus: DP1 radioligand binding assay ([3H]BWA868C, platelet membranes). The conditions noted are these: [3H]BWA868C binding, human platelet membranes; read-out: hDP1. As to the method: The ability of a compound to bind to the human DPI receptor was evaluated via a radioligand membrane binding assay using the DP1 selective synthetic ligand [^311]BWA868C. Packed human platelets (Biological Specialty Corporation), were resuspended in 6 volumes of Hepes/HBSS buffer (10 mM Hepes, 1 mM DTT in Hanks Balanced Salt Solution (HBSS)), lysed and centrifuged at 75,000×g to pellet the membranes. Membranes were resuspended in Hepes/HBSS buffer to approximately 12 mg protein/ml. Membranes (20 μg protein/well) are incubated in 96-well plates with 2 nM [^3H]BWA868C and test compound in Assay Buffer (50 mM Hepes, 10 mM MnCl2, 1 mM EDTA, plus or minus 0.2% human serum albumin, pH 7.4) for 60 minutes at room temperature. The reactions are terminated by rapid filtration through Whatman GF/C glass fibre filter plates. The filter plates were pre-soaked in 0.33% polyethylenimine for 30 minutes at room temperature then washed in Wash Buffer (50 mM Hepes, 0.5 M NaCl pH 7.4) prior to harvesting. After harvesting, the filter plates are washed 3 times with 1 ml cold Wash Buffer then dried. Scintillant is then added to the plates and the radioactivity retained on the filters is determined on a Packard TopCount (Perkin Elmer). Specific binding is determined as total radioactive binding minus non-specific binding in the presence of 10 μM BW A868C. IC50s were determined using GraphPad prism analysis of drug titration curves.
In the case of `CCN(Cc1cc(C(F)(F)F)ccc1-c1cc(CC(=O)O)ccc1OC)C(=O)OCc1ccccc1` [Compound 1-28, {2′-[(Benzyloxycarbonyl-ethyl-amino)-methyl]-6-methoxy-4′-trifluoromethyl-biphenyl-3-yl}-acetic acid], the IC50 is 1000 to 30000 nM.
The same measure, in the same setting: the figure for `CCN(Cc1cc(C(F)(F)F)ccc1-c1cc(CC(=O)O)ccc1OC)C(=O)OCc1cc(F)cc(F)c1` [Compound 1-40, (2′-{[(3,5-Difluoro-benzyloxycarbonyl)-ethyl-amino]-methyl}-6-methoxy-4′-trifluoromethyl-biphenyl-3-yl)-acetic acid] is 1000 to 30000 nM.
As to `CCN(Cc1cc(C(F)(F)F)ccc1-c1cc(CC(=O)O)ccc1OC)C(=O)OC(C)c1ccc(Cl)cc1` (stereo not shown) [Compound 1-44, [2′-({[1-(4-Chloro-phenyl)-ethoxycarbonyl]-ethyl-amino}-methyl)-6-methoxy-4′-trifluoromethyl-biphenyl-3-yl]-acetic acid], the IC50 was in the range of 1000 to 30000 nM.
Still for that read-out and setting: the figure for `CCN(Cc1cc(C(F)(F)F)ccc1-c1cc(CC(=O)O)ccc1OC)C(=O)C(C)(C)Oc1ccc(Cl)cc1` [Compound 1-118, [2′-({[2-(4-Chloro-phenoxy)-2-methyl-propionyl]-ethyl-amino}-methyl)-6-methoxy-4′-trifluoromethyl-biphenyl-3-yl]-acetic acid] is 1000 to 30000 nM; for `CCN(Cc1cc(F)ccc1-c1cc(CC(=O)O)ccc1OC)C(=O)NCc1ccccc1` [Compound 1-187, [2′-(3-Benzyl-1-ethyl-ureidomethyl)-4′-fluoro-6-methoxy-biphenyl-3-yl]-acetic acid] it is 1000 to 30000 nM; for `CCN(Cc1cc(C(F)(F)F)ccc1-c1cc(CC(=O)O)ccc1OC)C(=O)NCc1cc(Cl)cc(Cl)c1` [Compound 1-165, {2′-[3-(3,5-Dichloro-benzyl)-1-ethyl-ureidomethyl]-6-methoxy-4′-trifluoromethyl-biphenyl-3-yl}-acetic acid] it is 1000 to 30000 nM.
Same read-out and setting: to `COc1ccc(CC(=O)O)cc1-c1ccc(C(F)(F)F)cc1CN(C(C)=O)C1CCC1` [Compound 1-30, {2′-[(Acetyl-cyclobutyl-amino)-methyl]-6-methoxy-4′-trifluoromethyl-biphenyl-3-yl}-acetic acid] belongs 1000 to 30000 nM; to `CCN(Cc1cc(C(F)(F)F)ccc1-c1cc(CC(=O)O)ccc1OC)C(=O)NCc1cc(F)cc(F)c1` [Compound 1-178, {2′-[3-(3,5-Difluoro-benzyl)-1-ethyl-ureidomethyl]-6-methoxy-4′-trifluoromethyl-biphenyl-3-yl}-acetic acid], 1000 to 30000 nM; to `CCN(Cc1cc(NC(C)=O)ccc1-c1cc(CC(=O)O)ccc1OC)C(=O)OCc1ccccc1` [Compound 1-153, {4′-Acetylamino-2′-[(benzyloxycarbonyl-ethyl-amino)-methyl]-6-methoxy-biphenyl-3-yl}-acetic acid], 1000 to 30000 nM.
Consider `CCN(Cc1cc(C(F)(F)F)ccc1-c1cc(CC(=O)O)ccc1OC)C(=O)OCc1cccc(Cl)c1` [Compound 1-43, (2′-{[(3-Chloro-benzyloxycarbonyl)-ethyl-amino]-methyl}-6-methoxy-4′-trifluoromethyl-biphenyl-3-yl)-acetic acid], for which the IC50 fell in the range of 1000 to 30000 nM.
Still for that read-out and setting: the figure for `CCN(Cc1cc(C(F)(F)F)ccc1-c1cc(CC(=O)O)ccc1OC)C(=O)OCc1ccc(Cl)cc1` [Compound 1-42, (2′-{[(4-Chloro-benzyloxycarbonyl)-ethyl-amino]-methyl}-6-methoxy-4′-trifluoromethyl-biphenyl-3-yl)-acetic acid] is 1000 to 30000 nM.
